Data taken from patent US7964349B2, “Method to determine responsiveness of cancer to epidermal growth factor receptor targeting treatments” (The General Hospital Corporation, priority 2004, dated 2011).
Where “and” joins values, the source holds several entries; their conditions need not be identical. Equal values may be shown once. Entries after “also recorded” stand apart in the source; their conditions may differ.

How the values were obtained:
advanced NSCLC = test: Randomized trial of carboplatin/paclitaxel with or without erlotinib in advanced NSCLC; assay type: in vivo, human
Experimental: Tumor specimens were analyzed from patients with advanced NSCLC treated on the randomized trial of carboplatin/paclitaxel with or without erlotinib.

[1] = system: Lung cancer cells harboring EGFR mutations vs cells with wild-type receptor; test: Apoptosis / cell viability (MTT) assay with increasing drug concentrations; assay type: cell-based, human; conditions: compared with cells expressing only wild-type EGFR
Experimental: 10,000 cells were seeded into individual wells of a 96-well plate. […] After 96 hours, the viability of cells was determined using the MTT assay. For caspase immunostaining, 10,000 cells were seeded onto 10 mm coverslips. The next day they were transfected with siRNA (see previous section for details). After 72 hours the cells were fixed in 4% paraformaldehyde at room temperature for 10 min. They were subsequently permeabilized for 5 min in 0.5% Triton X-100 and blocked for 1 hr in 5% normal goat serum (NGS). […] The next day the coverslips were washed 3 times in PBS and incubated for 1 hour with secondary antibody (goat anti-rabbit Texas-red conjugated; from Jackson Immunoresearch; West Grove, Pa.) at a 1:250 dilution in 5% normal goat serum and 0.5 μg/ml of DAPI (4′,6-Diamidino-2-phenylindole). After 3 washes in PBS the coverslips were mounted with ProLong Gold anti-fade reagent from Molecular Probes (Eugene, Oreg.).
10 μl of 5 mg/ml MTT (Thiazolyl blue; Sigma) solution was added to each well of a 96-well plate. After 2 hours of incubation at 37° C., the medium was removed and the MTT was solubilized by the addition of 100 μl of acidic isopropanol (0.1N HCL) to each well. The absorbance was determined spectophotometrically at 570 nm.

[2] = system: non-small cell lung cancer (NSCLC)
Experimental: A significant clinical response was defined either as a partial response using RECIST criteria for patients with measurable disease, or for patients whose tumor burden could not be quantified using these criteria, an evaluable response was assessed by two physicians.

[3] = system: non-small cell lung cancer (NSCLC); conditions: cited from earlier work
[4] = single patients 1-9, one per line
[5] = multi-institutional phase II trial

C#Cc1cccc(Nc2ncnc3cc(OCCOC)c(OCCOC)cc23)c1 [erlotinib]
survival in the two treatment arms (advanced NSCLC): equivalent survival

N.N.[Cl][Pt][Cl] [cisplatin]
resistance of EGFR-mutant lung cancer cells to induced cell death signals [1]: markedly increased resistance

COc1cccc2c1C(=O)c1c(O)c3c(c(O)c1C2=O)C[C@@](O)(C(=O)CO)C[C@@H]3O[C@H]1C[C@H](N)[C@H](O)[C@H](C)O1 [doxorubicin]
resistance of EGFR-mutant lung cancer cells to induced cell death signals [1]: markedly increased resistance

Fas-ligand
resistance of EGFR-mutant lung cancer cells to induced cell death signals [1]: markedly increased resistance

COc1cc2ncnc(Nc3ccc(F)c(Cl)c3)c2cc1OCCCN1CCOCC1 [Gefitinib]
patients identified as having significant clinical responses ([2]; of a total of 275 patients treated): 25 patients
Overall Survival, from the beginning of gefitinib treatment to death [2, 4]: >14.0 mo and 12.9 mo and >21.4 mo and >7.8 mo and >4.3 mo and 17.9 mo and 18.8 mo
Response [2, 4]: Major; Improved bilateral; also recorded: Partial; improved lung; also recorded: Minor; improved pleural; also recorded: Partial; improved liver; also recorded: Major; improved lung
median survival from the start of drug treatment ([2]; the 9 responder patients of Table 1): > 18 months
patients with dramatic clinical responses ([3]; chemotherapy-refractory NSCLC): approximately 10%
side effects of treatment ([3]; generally believed consequence of EGFR inhibition in normal tissues): diarrhea and dermatitis
response rate, Japanese patients [3, 5]: 27.5%
response rate, predominantly European-derived population [3, 5]: 10.4%
